Results published in article PMC5668434, “Modulation of telomere protection by the PI3K/AKT pathway” (Nature Communications, 2017).
Like-named read-outs stand apart in the source and are kept apart here.

Assays:
[1] = system: p-AKT S473 in CHA-9.3 mouse lung cancer cell line; assay: Western blot of AKT phosphorylation at Ser473 in CHA-9.3 cells; format: cell-based; settings: for p-AKT S473 inhibition (in words): 10 μM time course; for inhibition at 10 µM: Mus musculus, read-out: Inhibition pAKT (Ser 473) with regard to DMSO
Experimental: These new chemical probes were prepared by replacement of a single key oxygen atom from the morpholine moiety by a methylene group, generating the piperidine derivatives ETP-51259 and ETP-50952 (Fig. 1a). To assess their PI3K cellular activity, we measured phosphorylation of residue Ser473 in AKT (p-AKT S473), a PI3K downstream target[61]–[63], by western blot analysis. To this end, we used the CHA-9.3 mouse lung cancer cell line previously generated by us[39]. […] Of note, the inhibitory activity of ETP-47037 was more prolonged than that of ETP-47228. Thus, ETP-47037 mediated p-AKT S473 inhibition was maintained during the 24-hour treatment while the ETP-47228 mediated inhibition decreased 35% after 24 h as compared to 1-h treatment but still was able to inhibit the pathway above 50% (Fig. 1c).
For detection of AKT, PRAS40 (T246) and pS6 in CHA9.3 cells, untreated control (DMSO) or treated with the indicated inhibitors, were lysed in RIPA buffer supplemented with 100 mM pefablock (Roche Diagnostics) and protease inhibitor cocktail (Roche Molecular Biochemicals). Proteins were resolved on 10% SDS-PAGE, and transferred to nitrocellulose membrane (Amersham^TM Protan^TM 0.2 µm nNC). Membranes were incubated with antibodies against phospho-AKT (Ser473), AKT, phospo-S6 (Ser 235/236), and S6Ribosomal from Cell Signaling, phospo-PRAS40 (Thr246) from BIOSURCE and anti α-tubulin form Sigma, overnight at 4 °C. After washing, blots were incubated with secondary antibody: Alexa Fluor 680 goat anti-rabbit IgG (Invitrogen) or anti-mouse IgG DyLight 800 conjugated (Thermo Scientific), and visualized using an Odyssey infrared imaging system (Li-Cor Biosciences).

PI3Kβ = settings: reported in literature, cited from earlier work
[2] = system: TRF1 foci in CHA-9.3 mouse lung tumor cell line; assay: TRF1 foci immunofluorescence in CHA-9.3 cells; format: cell-based; settings: for Inhibition of TRF1 foci (in words): 10 μM (GSK-2126458 1.0 μM)
Experimental: TRF1 immunofluorescence of TRF1 was performed in lung tumor-derived cell line (CHA9.3) and in MEFs[39]. A rat monoclonal antibody against mouse TRF1 developed by the Monoclonal antibody unit at CNIO was used to detect endogenous TRF1 (1:500). GFP-TRF1 fluorescence was directly measured in cells fixed in paraformaldehyde. For quantification of TRF1 foci intensity, pictures of fixed cells were automatically acquired from each well by the Opera HCS system (Perkin Elmer). Sixty images of random fields per well, with a 40× magnification lens, were taken under non-saturating conditions. At least 1 × 10^3 cells were analyzed for each well. Briefly, images were segmented using the DAPI staining to generate masks matching cell nuclei from which-TRF1 foci were analyzed.

PI3K (p110α) = target: T1, PI3K (p110α) (Homo sapiens, UniProt P42336); assay: PI3K alpha biochemical assay (ADP Hunter Plus); settings: for IC50: internal data, read-out: PI3Kα IC50
T1 construct: purchased Cama Biosciences (sic; Carna Biosciences) #07CBS-0402A
T1 sequence (P42336 whole entry): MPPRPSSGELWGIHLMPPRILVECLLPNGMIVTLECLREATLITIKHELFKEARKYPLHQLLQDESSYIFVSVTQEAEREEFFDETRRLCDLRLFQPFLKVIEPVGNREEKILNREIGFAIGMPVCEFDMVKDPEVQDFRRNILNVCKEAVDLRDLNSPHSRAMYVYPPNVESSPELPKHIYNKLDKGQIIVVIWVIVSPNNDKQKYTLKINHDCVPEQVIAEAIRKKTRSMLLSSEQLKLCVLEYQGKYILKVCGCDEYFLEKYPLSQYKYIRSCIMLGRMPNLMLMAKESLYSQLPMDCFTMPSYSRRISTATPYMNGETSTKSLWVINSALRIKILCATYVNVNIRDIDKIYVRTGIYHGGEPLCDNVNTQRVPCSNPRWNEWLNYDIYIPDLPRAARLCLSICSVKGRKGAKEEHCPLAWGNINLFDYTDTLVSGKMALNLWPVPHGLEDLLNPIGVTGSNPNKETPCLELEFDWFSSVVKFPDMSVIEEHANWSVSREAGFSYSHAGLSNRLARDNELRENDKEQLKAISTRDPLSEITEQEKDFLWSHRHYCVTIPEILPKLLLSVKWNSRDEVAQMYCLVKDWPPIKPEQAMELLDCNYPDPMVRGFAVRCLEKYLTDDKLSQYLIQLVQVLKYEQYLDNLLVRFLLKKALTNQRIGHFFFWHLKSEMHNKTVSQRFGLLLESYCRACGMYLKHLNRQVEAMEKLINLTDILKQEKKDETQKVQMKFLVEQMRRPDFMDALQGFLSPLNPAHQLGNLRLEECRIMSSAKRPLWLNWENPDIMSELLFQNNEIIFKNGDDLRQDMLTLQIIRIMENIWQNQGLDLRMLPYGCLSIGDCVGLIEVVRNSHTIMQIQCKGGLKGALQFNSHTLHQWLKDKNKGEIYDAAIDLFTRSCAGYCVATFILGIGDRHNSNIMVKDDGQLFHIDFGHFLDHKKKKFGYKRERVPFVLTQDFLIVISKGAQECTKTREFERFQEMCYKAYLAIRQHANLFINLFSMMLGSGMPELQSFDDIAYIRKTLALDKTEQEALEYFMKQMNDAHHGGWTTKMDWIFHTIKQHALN
T1 sequence (P27986 whole entry partner): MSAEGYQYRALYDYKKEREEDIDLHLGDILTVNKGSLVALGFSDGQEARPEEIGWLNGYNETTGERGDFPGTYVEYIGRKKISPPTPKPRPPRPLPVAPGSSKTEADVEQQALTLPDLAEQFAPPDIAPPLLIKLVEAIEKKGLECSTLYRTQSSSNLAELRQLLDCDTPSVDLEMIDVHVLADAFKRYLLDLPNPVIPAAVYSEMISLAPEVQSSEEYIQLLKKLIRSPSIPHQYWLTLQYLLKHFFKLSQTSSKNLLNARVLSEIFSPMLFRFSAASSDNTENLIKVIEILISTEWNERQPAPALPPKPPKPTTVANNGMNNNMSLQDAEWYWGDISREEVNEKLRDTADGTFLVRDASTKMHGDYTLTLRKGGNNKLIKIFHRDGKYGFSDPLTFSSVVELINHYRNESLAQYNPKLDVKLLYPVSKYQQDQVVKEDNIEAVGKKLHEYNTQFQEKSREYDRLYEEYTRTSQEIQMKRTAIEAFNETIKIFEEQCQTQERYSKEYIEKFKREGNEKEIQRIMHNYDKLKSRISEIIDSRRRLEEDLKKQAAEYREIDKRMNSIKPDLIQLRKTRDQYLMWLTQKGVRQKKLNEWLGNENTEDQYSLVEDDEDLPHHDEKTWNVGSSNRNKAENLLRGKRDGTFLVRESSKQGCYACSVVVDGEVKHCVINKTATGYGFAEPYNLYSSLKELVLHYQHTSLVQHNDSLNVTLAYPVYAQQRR

mTOR (FRAP1) = target: T2, mTOR (FRAP1) (Homo sapiens, UniProt P42345); assay: mTOR biochemical assay (LanthaScreen); settings: for IC50: internal data
T2 construct: purchased ThermoFisher PV4753
T2 sequence (P42345 1360-2549 limits assumed): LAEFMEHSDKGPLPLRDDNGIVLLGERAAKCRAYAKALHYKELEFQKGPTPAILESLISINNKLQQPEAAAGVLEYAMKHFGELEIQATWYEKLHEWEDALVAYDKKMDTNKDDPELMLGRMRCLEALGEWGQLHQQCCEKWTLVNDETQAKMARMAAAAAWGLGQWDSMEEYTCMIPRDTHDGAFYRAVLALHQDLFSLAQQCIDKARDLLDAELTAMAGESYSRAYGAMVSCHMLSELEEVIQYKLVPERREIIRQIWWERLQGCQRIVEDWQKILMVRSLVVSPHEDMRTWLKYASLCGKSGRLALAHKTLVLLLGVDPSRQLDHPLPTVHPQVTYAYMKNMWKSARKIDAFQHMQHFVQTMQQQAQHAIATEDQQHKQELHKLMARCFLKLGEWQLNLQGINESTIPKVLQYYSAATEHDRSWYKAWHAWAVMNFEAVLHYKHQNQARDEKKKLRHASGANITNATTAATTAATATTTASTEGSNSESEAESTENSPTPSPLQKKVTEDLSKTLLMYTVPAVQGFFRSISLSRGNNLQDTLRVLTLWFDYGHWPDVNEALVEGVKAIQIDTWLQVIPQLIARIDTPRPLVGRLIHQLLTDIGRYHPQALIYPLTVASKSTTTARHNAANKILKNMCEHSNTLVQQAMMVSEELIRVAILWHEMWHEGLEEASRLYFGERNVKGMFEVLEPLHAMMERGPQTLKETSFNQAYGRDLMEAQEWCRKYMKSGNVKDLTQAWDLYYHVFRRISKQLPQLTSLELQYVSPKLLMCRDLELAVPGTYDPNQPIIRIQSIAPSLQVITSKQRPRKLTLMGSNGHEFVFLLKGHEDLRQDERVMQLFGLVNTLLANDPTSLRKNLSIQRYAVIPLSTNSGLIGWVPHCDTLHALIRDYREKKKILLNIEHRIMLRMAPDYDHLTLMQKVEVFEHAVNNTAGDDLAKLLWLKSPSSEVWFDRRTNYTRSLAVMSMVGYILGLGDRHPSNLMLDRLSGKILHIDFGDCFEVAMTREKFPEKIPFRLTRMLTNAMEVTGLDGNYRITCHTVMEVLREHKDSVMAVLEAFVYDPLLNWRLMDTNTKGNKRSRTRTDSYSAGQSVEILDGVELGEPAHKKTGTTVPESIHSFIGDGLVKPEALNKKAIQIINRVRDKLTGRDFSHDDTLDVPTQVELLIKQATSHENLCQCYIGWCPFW

[3] = system: TRF1 mRNA in CHA 9-3 lung cancer cells; assay: TRF1 mRNA by qPCR; format: cell-based, mouse; settings: 10 μM, 24 h
PI3Kγ = settings: reported in literature, cited from earlier work
PI3Kδ = settings: reported in literature, cited from earlier work
mTOR = settings: reported in literature; cited from earlier work
PI3Kα = settings: reported in literature, cited from earlier work
[4] = target: the molecule itself; assay: western blot after SDS-PAGE in non-reducing conditions; nuclear extracts of Trf1-deleted MEFs expressing the GFP-tagged TRF1 variant, prepared without dithiothreitol and 2-mercaptoethanol, not heated before gel loading; blot against TRF1; one wild-type sample in reducing conditions shows the monomer

Cc1cc(C(C)Nc2ccccc2)c2nc(N3CCOCC3)cc(=O)n2c1 (stereo not drawn) [TGX-221, reference compound]
Phosphorylation of AKT (p-AKT S473) (in words) ([1]; 10 μM (GSK-2126458 1.0 μM), 24 h): moderate inhibition | IC50 (PI3Kβ): […] | Reported selectivity for PI3Kβ vs. PI3Kα (PI3Kβ): […] | inhibition at 10 µM ([2]; Mus musculus, 10 μM, 24 h, CHA-9.3, relative to DMSO, read-out: Inhibition of TRF1 foci fluorescence): […] | PI3Kα inhibition (in words) (PI3K (p110α)): negligible PI3Kα inhibition

CC(C)C[C@H](NC(=O)[C@H](Cc1ccccc1)NC(=O)c1cnccn1)B(O)O [Bortezomib, reference compound]
TRF1 intensity levels ([2]; bortezomib 50 nM, CHA 9-3): twofold increase

CS(=O)(=O)N1CCN(Cc2cc3c(N4CCCCC4)nc(-c4cnc(N)nc4)cn3n2)CC1 [ETP-51259]
p-AKT S473 inhibition (in words) [1]: largely unaffected | inhibition at 10 µM ([1]; 1 h, 1 h): 48% | inhibition at 10 µM ([1]; 4 h, 4 h): 49% | inhibition at 10 µM ([1]; 16 h, 16 h): 4% | IC50 (mTOR (FRAP1)): > 10000 nM | Inhibition of TRF1 foci (in words) ([2]; 24 h, CHA-9.3): negligible inhibition of TRF1 foci | Activity against PI3K (in words) (PI3K (p110α)): negligible activity against PI3K | IC50 (PI3K (p110α)): > 10000 nM

CS(=O)(=O)N1CCN(Cc2cc3nc(-c4cccc5[nH]ncc45)nc(N4CCOCC4)c3s2)CC1 [GDC-0941, 2-(1H-indazol-4-yl)-6-(4-methanesulfonyl-piperazin-1-ylmethyl)-4-morpholin-4-yl-t hieno[3,2-d]pyrimidine]
TRF1 mRNA levels [3]: None of the inhibitors significantly affected | IC50 (PI3Kβ): […] | IC50 (PI3Kγ): […] | IC50 (PI3Kδ): […]

Cc1cnc2c(N3CCCCC3)nc(-c3ccc(NC(=O)Nc4ccc(C(=O)N5CCN(C)CC5)cc4)cc3)cn12 [ETP-50952]
p-AKT S473 inhibition (in words) [1]: largely unaffected | inhibition at 10 µM ([1]; 1 h, 1 h): 38% | inhibition at 10 µM ([1]; 4 h, 4 h): 18% | inhibition at 10 µM ([1]; 24 h, 24 h): 10% | IC50 (mTOR (FRAP1)): > 10000 nM | Inhibition of TRF1 foci (in words) ([2]; 24 h, CHA-9.3): negligible inhibition of TRF1 foci | Activity against PI3K (in words) (PI3K (p110α)): negligible activity against PI3K | IC50 (PI3K (p110α)): 9000 nM

Cn1c(=O)n(-c2ccc(C(C)(C)C#N)cc2)c2c3cc(-c4cnc5ccccc5c4)ccc3ncc21 [BEZ-235]
IC50 (PI3Kβ): 5 nM | mTOR inhibition (in words) (mTOR (FRAP1)): potent nanomolar mTOR inhibition | IC50 (mTOR): […] | IC50 (PI3Kγ): 75 nM | IC50 (PI3Kα): 4 nM

COCCNC(=O)c1nc2c(N3CCOCC3)nc(-c3cnc(N)nc3)cn2c1C [ETP-46992]
Ki (PI3Kβ; read-out: Reported data PI3Kβ Kiapp): […] | IC50 (mTOR (FRAP1)): 3690 nM | IC50 (mTOR): > 3000 nM | Ki (PI3Kγ; read-out: Reported data PI3Kγ Kiapp): […] | Ki (PI3Kδ; read-out: Reported data PI3Kδ Kiapp): […] | Ki (PI3Kα; read-out: Reported data PI3Kα Kiapp): 2.4 nM

B1: eGFP-tagged TRF1 wild type (natural protein, mouse, UniProt P70371 1-421, looked up)
chain: MAETVSSAARDAPSREGWTDSDSPEQEEVGDDAELLQCQLQLGTPREMENAELVAEVEAVAAGWMLDFLCLSLCRAFRDGRSEDFRRTRDSAEAIIHGLHRLTAYQLKTVYICQFLTRVASGKALDAQFEVDERITPLESALMIWNSIEKEHDKLHDEIKNLIKIQAVAVCMEIGSFKEAEEVFERIFGDPEFYTPLERKLLKIISQKDVFHSLFQHFSYSCMMEKIQSYVGDVLSEKSSTFLMKAATKVVENEKARTQASKDRPDATNTGMDTEVGLNKEKSVNGQQSTETEPLVDTVSSIRSHKNALSQLKHRRAPSDFSRNEARTGTLQCETTMERNRRTSGRNRLCVSENQPDTDDKSGRRKRQTWLWEEDRILKCGVKKYGEGNWAKILSHYKFNNRTSVMLKDRWRTMKRLKLIS
notes: insert of the retroviral vector eGFP-TRF1 pWzl-Hygro; also called GFP-TRF1; eGFP-TRF1; source: Trf1 lox/lox MEFs, retroviral transduction (eGFP-TRF1 pWzl-Hygro), endogenous Trf1 deleted with Cre, in nuclear extract
stoichiometry N [4]: 2

B2: eGFP-tagged TRF1 T330A/S344A (natural protein, mouse, UniProt P70371 1-421, looked up)
chain: MAETVSSAARDAPSREGWTDSDSPEQEEVGDDAELLQCQLQLGTPREMENAELVAEVEAVAAGWMLDFLCLSLCRAFRDGRSEDFRRTRDSAEAIIHGLHRLTAYQLKTVYICQFLTRVASGKALDAQFEVDERITPLESALMIWNSIEKEHDKLHDEIKNLIKIQAVAVCMEIGSFKEAEEVFERIFGDPEFYTPLERKLLKIISQKDVFHSLFQHFSYSCMMEKIQSYVGDVLSEKSSTFLMKAATKVVENEKARTQASKDRPDATNTGMDTEVGLNKEKSVNGQQSTETEPLVDTVSSIRSHKNALSQLKHRRAPSDFSRNEARTGALQCETTMERNRRTAGRNRLCVSENQPDTDDKSGRRKRQTWLWEEDRILKCGVKKYGEGNWAKILSHYKFNNRTSVMLKDRWRTMKRLKLIS
notes: insert of the retroviral vector eGFP-TRF1 pWzl-Hygro with T330A and S344A; Made by site-directed mutagenesis of the vector of m1 with the primers mTRF1-T330A and mTRF1-S344A; also called TRF1 double mutant; GFP-TRF1 T330A/S344A
stoichiometry N [4]: 2

B3: eGFP-tagged TRF1 T248A (natural protein, mouse, UniProt P70371 1-421, looked up)
chain: MAETVSSAARDAPSREGWTDSDSPEQEEVGDDAELLQCQLQLGTPREMENAELVAEVEAVAAGWMLDFLCLSLCRAFRDGRSEDFRRTRDSAEAIIHGLHRLTAYQLKTVYICQFLTRVASGKALDAQFEVDERITPLESALMIWNSIEKEHDKLHDEIKNLIKIQAVAVCMEIGSFKEAEEVFERIFGDPEFYTPLERKLLKIISQKDVFHSLFQHFSYSCMMEKIQSYVGDVLSEKSSTFLMKAAAKVVENEKARTQASKDRPDATNTGMDTEVGLNKEKSVNGQQSTETEPLVDTVSSIRSHKNALSQLKHRRAPSDFSRNEARTGTLQCETTMERNRRTSGRNRLCVSENQPDTDDKSGRRKRQTWLWEEDRILKCGVKKYGEGNWAKILSHYKFNNRTSVMLKDRWRTMKRLKLIS
notes: insert of the retroviral vector eGFP-TRF1 pWzl-Hygro with T248A; Made by site-directed mutagenesis of the vector of m1 with the primer mTRF1-T248A; also called GFP-TRF1 T248A
stoichiometry N [4]: 2

B4: eGFP-tagged TRF1 T330A (natural protein, mouse, UniProt P70371 1-421, looked up)
chain: MAETVSSAARDAPSREGWTDSDSPEQEEVGDDAELLQCQLQLGTPREMENAELVAEVEAVAAGWMLDFLCLSLCRAFRDGRSEDFRRTRDSAEAIIHGLHRLTAYQLKTVYICQFLTRVASGKALDAQFEVDERITPLESALMIWNSIEKEHDKLHDEIKNLIKIQAVAVCMEIGSFKEAEEVFERIFGDPEFYTPLERKLLKIISQKDVFHSLFQHFSYSCMMEKIQSYVGDVLSEKSSTFLMKAATKVVENEKARTQASKDRPDATNTGMDTEVGLNKEKSVNGQQSTETEPLVDTVSSIRSHKNALSQLKHRRAPSDFSRNEARTGALQCETTMERNRRTSGRNRLCVSENQPDTDDKSGRRKRQTWLWEEDRILKCGVKKYGEGNWAKILSHYKFNNRTSVMLKDRWRTMKRLKLIS
notes: insert of the retroviral vector eGFP-TRF1 pWzl-Hygro with T330A; Made by site-directed mutagenesis of the vector of m1 with the primer mTRF1-T330A; also called GFP-TRF1 T330A
stoichiometry N [4]: 2

B5: eGFP-tagged TRF1 S344A (natural protein, mouse, UniProt P70371 1-421, looked up)
chain: MAETVSSAARDAPSREGWTDSDSPEQEEVGDDAELLQCQLQLGTPREMENAELVAEVEAVAAGWMLDFLCLSLCRAFRDGRSEDFRRTRDSAEAIIHGLHRLTAYQLKTVYICQFLTRVASGKALDAQFEVDERITPLESALMIWNSIEKEHDKLHDEIKNLIKIQAVAVCMEIGSFKEAEEVFERIFGDPEFYTPLERKLLKIISQKDVFHSLFQHFSYSCMMEKIQSYVGDVLSEKSSTFLMKAATKVVENEKARTQASKDRPDATNTGMDTEVGLNKEKSVNGQQSTETEPLVDTVSSIRSHKNALSQLKHRRAPSDFSRNEARTGTLQCETTMERNRRTAGRNRLCVSENQPDTDDKSGRRKRQTWLWEEDRILKCGVKKYGEGNWAKILSHYKFNNRTSVMLKDRWRTMKRLKLIS
notes: insert of the retroviral vector eGFP-TRF1 pWzl-Hygro with S344A; Made by site-directed mutagenesis of the vector of m1 with the primer mTRF1-S344A; also called GFP-TRF1 S344A
stoichiometry N [4]: 2
